In patent US6833489B1, “Assays for modulators of prolyl-4-hydroxylase” (Wisconsin Alumni Research Foundation, priority 1999, dated 2004):

System: C. elegans wild-type, dpy-18(ok162) or phy-2(ok177)
Assay: Exposure of adult hermaphrodites to inhibitors, lethality of progeny
Format: in vivo, Caenorhabditis elegans
Conditions: regardless of genotype (wild-type
Procedure: All wild-type C. elegans were from an N2 Bristol strain. Worms were cultured at 20° C. under standard conditions unless otherwise noted (J. E. Sulston and J. Hodgkin, Methods. In The Nematode Caenorhabditis elegans, pp. 587-606, 1988). LG II:unc-4(e120) was used as a marker for transgenic assays. LG III:dpy-18(ok162) is a deletion mutation isolated specifically as a knock-out of the prolyl 4-hydroxylase on chromosome III. […] 11 alleles (mutations in the dpy-18 gene) are known—dpy-18: e346, e364, e499, e1096, e1270, e1862, h662, s361, s1304, s1305, s1306. LG IV:unc-22(e66) is a mutation that can be used to recognize chromosome IV, and poh-1(ok-177) is a deletion mutation isolated specifically as a knock-out of the prolyl 4-hydroxylase gene on chromosome IV.
Small molecules that inhibit protein function can be used to confirm and extend results from genetic experiments. We tested two known prolyl 4-hydroxylase inhibitors for their effects on C. elegans. […] Both inhibitors limit prolyl 4-hydroxylase activity in cells, where their esters are hydrolyzed to form competitors of α-ketoglutarate. We also tested Inhibitor III (which is similar in structure to Inhibitor II) and Inhibitor IV (which is similar in structure to Inhibitor I). Neither Inhibitor III nor […] is known to limit prolyl 4-hydroxylase activity in cells. […]

Compound: CCOC(=O)c1ccnc(C(=O)OCC)c1 [Inhibitor I, 2,4-diethylpyridine dicarboxylate]
- lethality of progeny (high level 2.7 μM, FIG. 2A): all progeny died

Compound: COC(=O)CNC(=O)C(=O)OC [Inhibitor II, dimethyloxalylglycine]
- lethality of progeny (high level 1.3 μM, FIG. 2B): all progeny died
